Source: ChEMBL document CHEMBL1127003, “N-oleoyl-1,2,3,4-tetrahydroisoquinolines as conformationally restricted inhibitors of acyl-CoA:cholesterol acyl transferase (ACAT)” (Bioorg Med Chem Lett, 1993)

Columns and labels:
[1] = target: T1, Sterol O-acyltransferase 1 (Rattus norvegicus) (UniProt O70536); experiment: Percent inhibition of Acyl coenzyme A:cholesterol acyltransferase at a concentration of 25(micro M) was evaluated in rat liver microsomes using ACAT microsomal assay.; details: Microsome
T1 sequence (whole entry): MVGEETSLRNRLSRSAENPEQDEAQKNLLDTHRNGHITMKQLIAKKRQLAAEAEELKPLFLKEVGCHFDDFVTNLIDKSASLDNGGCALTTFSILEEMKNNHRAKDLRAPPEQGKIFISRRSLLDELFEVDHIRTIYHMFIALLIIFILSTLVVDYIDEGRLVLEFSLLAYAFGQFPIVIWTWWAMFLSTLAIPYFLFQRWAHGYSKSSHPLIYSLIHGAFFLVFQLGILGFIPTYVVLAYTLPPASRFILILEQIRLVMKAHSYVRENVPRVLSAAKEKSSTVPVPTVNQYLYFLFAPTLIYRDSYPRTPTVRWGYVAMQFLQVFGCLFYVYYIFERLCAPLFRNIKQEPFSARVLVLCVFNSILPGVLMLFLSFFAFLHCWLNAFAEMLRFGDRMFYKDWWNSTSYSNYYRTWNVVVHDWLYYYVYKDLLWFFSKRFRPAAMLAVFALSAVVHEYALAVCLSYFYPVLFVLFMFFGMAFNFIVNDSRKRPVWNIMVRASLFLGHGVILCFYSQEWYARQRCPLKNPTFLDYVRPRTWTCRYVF

[2] = target: T2, Sterol O-acyltransferase 1 (Rattus norvegicus, UniProt O70536); experiment: Inhibitory activity was evaluated in rat liver microsomes using Acyl coenzyme A:cholesterol acyltransferase microsomal assay.; design: species or system Microsome
T2 sequence (O70536 whole entry): T1 sequence (whole entry)

inhibition [1] [%] | IC50 [2] [µM] | Structure (SMILES)
67 | – | CCCCCCCC/C=C\CCCCCCCC(=O)N1Cc2cc(OC)c(OC)cc2CC1c1ccc(OC)c(OC)c1 (stereo unspecified)
86 | 3.8 | CCCCCCCC/C=C\CCCCCCCC(=O)N1Cc2cc(OC)c(OC)cc2CC1c1ccccc1 (stereo unspecified)
81 | 4.8 | CCCCCCCC/C=C\CCCCCCCC(=O)N1CCc2ccccc2C1Cc1ccccc1 (stereo unspecified)
91 | 2.7 | CCCCCCCC/C=C\CCCCCCCC(=O)N1CCc2cc(OC)c(OC)cc2C1Cc1ccc(OC)c(OC)c1 (stereo unspecified)
87 | 0.15 | CCCCCCCC/C=C\CCCCCCCC(=O)NC(Cc1ccccc1)c1ccccc1 (stereo unspecified)
73 | – | CCCCCCCC/C=C\CCCCCCCC(=O)N1CCc2cc(O)c(O)cc2C1Cc1ccccc1 (stereo unspecified)
63 | – | CCCCCCCC/C=C\CCCCCCCC(=O)N1CCc2cc(OC)c(OC)cc2C1Cc1ccccc1 (stereo unspecified)
